These are literature values, as cited in patent US20050042289A1, “Tablets and methods for modified release of hydrophylic and other active agents” (Yamanouchi Pharma Technologies, Inc., priority 2003, published 2005).

The conditions of the data set: in water at 25° C., hemihydrate.

Counter-ions that a name gives are not always drawn. Like-named read-outs stand apart in the source and are kept apart here.

On to `CC1OC2(CS1)CN1CCC2CC1` (racemic) [SNI-2011, (+/−)-cis-2-methylspiro [1,3-oxathiolane-5,3′-quinuclidine] hydrochloride, hemihydrate], for which the water solubility runs as follows: (listed as Cevimeline hydrochloride) 766 mg/mL; (listed as methylspiro hydrochloride salt) around 800 mg/mL; (hydrochloride) “about 1,400 mg/ml”.
